Test results published in patent publication US10106538B2, “Inhibitors of protein kinases” (PRINCETON DRUG DISCOVERY INC, priority 2015, dated 2018).

How the values were obtained:
Experiment in all cases: Off-chip Mobility Shift Assay (MSA) kinase inhibition
Format in all cases: biochemical
BLK = molecular target: T1, BLK (Homo sapiens, UniProt P51451)
T1 construct: purchased Carna Biosciences
Method in brief: (§1)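 Kinase + substrate/ATP/metal + cpd, 20 mM HEPES pH 7.5, 0.01% Triton X100, 2 mM DTT; RT, 1 or 5 h depending on kinase; stop buffer; LabChip peptide separation; % inh from P/(P+S) vs enzyme(−) and complete-reaction controls.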

EPHA5 = molecular target: T2, EPHA5 (Homo sapiens, UniProt P54756); settings: inhibitor concentration 1 μM
T2 construct: purchased Carna Biosciences
Method in brief: as §1

FGFR1 = molecular target: T3, FGFR1 (Homo sapiens, UniProt P11362); settings: inhibitor concentration 1 μM
T3 construct: purchased Carna Biosciences
Method in brief: as §1

FLT1 = molecular target: T4, FLT1 (Homo sapiens, UniProt P17948); settings: inhibitor concentration 1 μM
T4 construct: purchased Carna Biosciences
Method in brief: as §1

FLT4 = molecular target: T5, FLT4 (Homo sapiens, UniProt P35916); settings: inhibitor concentration 1 μM
T5 construct: purchased Carna Biosciences
Method in brief: as §1

FRK = molecular target: T6, FRK (Homo sapiens, UniProt P42685); settings: inhibitor concentration 1 μM
T6 construct: purchased Carna Biosciences
Method in brief: as §1

FYN(isoform a) = molecular target: T7, FYN(isoform a) (Homo sapiens, UniProt P06241)
T7 construct: purchased Carna Biosciences
Method in brief: as §1

FYN(isoform b) = molecular target: T8, FYN(isoform b) (Homo sapiens, UniProt P06241)
T8 construct: purchased Carna Biosciences
Method in brief: as §1

KIT(D816E) = molecular target: T9, KIT(D816E) (Homo sapiens, UniProt P10721, D816E); settings: inhibitor concentration 1 μM
T9 construct: purchased Carna Biosciences
Method in brief: as §1

MAP2K5 = molecular target: T10, MAP2K5 (Homo sapiens, UniProt Q13163); settings: inhibitor concentration 1 μM
T10 construct: purchased Carna Biosciences
Method in brief: as §1

MAP2K6 = molecular target: T11, MAP2K6 (Homo sapiens, UniProt P52564); settings: inhibitor concentration 1 μM
T11 construct: purchased Carna Biosciences
Method in brief: as §1

MAP2K7 = molecular target: T12, MAP2K7 (Homo sapiens, UniProt O14733); settings: inhibitor concentration 1 μM
T12 construct: purchased Carna Biosciences
Method in brief: as §1

MST3 = molecular target: T13, MST3 (Homo sapiens, UniProt Q9Y6E0); settings: inhibitor concentration 1 μM
T13 construct: purchased Carna Biosciences
Method in brief: as §1

MST4 = molecular target: T14, MST4 (Homo sapiens, UniProt Q9P289); settings: inhibitor concentration 1 μM
T14 construct: purchased Carna Biosciences
Method in brief: as §1

PKD1 = molecular target: T15, PKD1 (Homo sapiens, UniProt Q15139); settings: inhibitor concentration 1 μM
T15 construct: purchased Carna Biosciences
Method in brief: as §1

RET(Y791F) = molecular target: T16, RET(Y791F) (Homo sapiens, UniProt P07949, Y791F)
T16 construct: purchased Carna Biosciences
Method in brief: as §1

ROCK1 = molecular target: T17, ROCK1 (Homo sapiens, UniProt Q13464); settings: inhibitor concentration 1 μM
T17 construct: purchased Carna Biosciences
Method in brief: as §1

ROCK2 = molecular target: T18, ROCK2 (Homo sapiens, UniProt O75116); settings: inhibitor concentration 1 μM
T18 construct: purchased Carna Biosciences
Method in brief: as §1

YES = molecular target: T19, YES (Homo sapiens, UniProt P07947)
T19 construct: purchased Carna Biosciences
Method in brief: as §1

YES(T348I) = molecular target: T20, YES(T348I) (Homo sapiens, UniProt P07947, T348I); settings: inhibitor concentration 1 μM
T20 construct: purchased Carna Biosciences
Method in brief: as §1

p38β = molecular target: T21, p38β (Homo sapiens, UniProt Q15759); settings: inhibitor concentration 1 μM
T21 construct: purchased Carna Biosciences
Method in brief: as §1

skMLCK = molecular target: T22, skMLCK (Homo sapiens, UniProt Q9H1R3); settings: inhibitor concentration 1 μM
T22 construct: purchased Carna Biosciences
Method in brief: as §1

[1] = inhibitor concentration 0.01 μM

T1 sequence (P51451 whole entry): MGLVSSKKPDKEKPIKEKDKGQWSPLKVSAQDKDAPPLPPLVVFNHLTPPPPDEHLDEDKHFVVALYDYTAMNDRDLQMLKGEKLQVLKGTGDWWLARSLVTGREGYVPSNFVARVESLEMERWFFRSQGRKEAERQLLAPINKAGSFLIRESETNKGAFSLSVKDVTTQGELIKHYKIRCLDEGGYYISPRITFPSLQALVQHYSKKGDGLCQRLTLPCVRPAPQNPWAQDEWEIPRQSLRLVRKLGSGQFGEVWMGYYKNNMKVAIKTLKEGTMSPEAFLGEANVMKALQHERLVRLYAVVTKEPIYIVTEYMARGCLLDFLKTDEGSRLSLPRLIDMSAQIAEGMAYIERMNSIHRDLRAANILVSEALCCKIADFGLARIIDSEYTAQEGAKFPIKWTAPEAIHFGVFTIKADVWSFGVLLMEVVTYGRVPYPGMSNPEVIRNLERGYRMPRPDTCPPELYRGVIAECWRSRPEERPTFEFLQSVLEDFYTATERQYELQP
T16 sequence (P07949 29-1114 Y791F): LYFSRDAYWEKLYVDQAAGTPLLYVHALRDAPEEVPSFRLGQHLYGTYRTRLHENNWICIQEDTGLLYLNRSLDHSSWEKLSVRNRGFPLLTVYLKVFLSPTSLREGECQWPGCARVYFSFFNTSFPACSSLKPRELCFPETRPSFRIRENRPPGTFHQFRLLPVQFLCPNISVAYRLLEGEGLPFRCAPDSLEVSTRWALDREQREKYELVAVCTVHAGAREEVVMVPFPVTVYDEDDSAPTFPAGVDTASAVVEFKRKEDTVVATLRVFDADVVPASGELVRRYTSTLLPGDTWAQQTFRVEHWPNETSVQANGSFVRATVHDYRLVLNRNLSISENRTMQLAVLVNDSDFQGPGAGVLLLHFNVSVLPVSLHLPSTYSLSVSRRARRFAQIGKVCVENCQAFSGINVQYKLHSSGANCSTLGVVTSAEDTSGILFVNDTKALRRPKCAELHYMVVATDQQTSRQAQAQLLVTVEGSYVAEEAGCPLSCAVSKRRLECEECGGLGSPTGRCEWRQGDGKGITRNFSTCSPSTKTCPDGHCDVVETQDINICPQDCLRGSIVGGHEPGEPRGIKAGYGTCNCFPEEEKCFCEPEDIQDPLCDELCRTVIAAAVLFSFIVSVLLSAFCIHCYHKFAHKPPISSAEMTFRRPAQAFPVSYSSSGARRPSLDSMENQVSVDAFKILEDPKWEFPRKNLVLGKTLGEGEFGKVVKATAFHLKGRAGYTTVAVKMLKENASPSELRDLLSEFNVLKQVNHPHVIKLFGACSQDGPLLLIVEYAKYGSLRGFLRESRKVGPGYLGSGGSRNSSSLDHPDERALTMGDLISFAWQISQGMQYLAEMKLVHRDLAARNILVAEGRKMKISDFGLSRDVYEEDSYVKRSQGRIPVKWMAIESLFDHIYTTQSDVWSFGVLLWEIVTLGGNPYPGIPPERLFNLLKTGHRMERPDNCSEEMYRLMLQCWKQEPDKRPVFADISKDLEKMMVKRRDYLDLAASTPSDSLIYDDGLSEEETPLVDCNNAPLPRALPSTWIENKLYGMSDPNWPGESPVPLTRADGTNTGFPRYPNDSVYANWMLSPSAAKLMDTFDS
T8 sequence (P06241 1-534 isoform P06241-2): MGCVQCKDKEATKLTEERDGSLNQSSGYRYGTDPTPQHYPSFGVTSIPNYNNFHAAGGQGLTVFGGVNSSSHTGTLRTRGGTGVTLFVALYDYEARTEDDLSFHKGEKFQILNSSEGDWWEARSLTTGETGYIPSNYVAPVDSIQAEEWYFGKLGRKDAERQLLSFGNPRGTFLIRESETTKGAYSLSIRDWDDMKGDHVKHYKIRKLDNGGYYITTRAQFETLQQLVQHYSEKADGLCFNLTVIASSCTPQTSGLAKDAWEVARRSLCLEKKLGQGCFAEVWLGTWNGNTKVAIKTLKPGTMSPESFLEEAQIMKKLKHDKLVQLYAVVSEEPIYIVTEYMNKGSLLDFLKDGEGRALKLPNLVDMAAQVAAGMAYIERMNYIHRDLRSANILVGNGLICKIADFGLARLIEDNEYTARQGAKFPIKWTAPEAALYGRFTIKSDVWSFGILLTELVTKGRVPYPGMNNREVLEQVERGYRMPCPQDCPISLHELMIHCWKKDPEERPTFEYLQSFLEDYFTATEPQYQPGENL
T19 sequence (P07947 whole entry): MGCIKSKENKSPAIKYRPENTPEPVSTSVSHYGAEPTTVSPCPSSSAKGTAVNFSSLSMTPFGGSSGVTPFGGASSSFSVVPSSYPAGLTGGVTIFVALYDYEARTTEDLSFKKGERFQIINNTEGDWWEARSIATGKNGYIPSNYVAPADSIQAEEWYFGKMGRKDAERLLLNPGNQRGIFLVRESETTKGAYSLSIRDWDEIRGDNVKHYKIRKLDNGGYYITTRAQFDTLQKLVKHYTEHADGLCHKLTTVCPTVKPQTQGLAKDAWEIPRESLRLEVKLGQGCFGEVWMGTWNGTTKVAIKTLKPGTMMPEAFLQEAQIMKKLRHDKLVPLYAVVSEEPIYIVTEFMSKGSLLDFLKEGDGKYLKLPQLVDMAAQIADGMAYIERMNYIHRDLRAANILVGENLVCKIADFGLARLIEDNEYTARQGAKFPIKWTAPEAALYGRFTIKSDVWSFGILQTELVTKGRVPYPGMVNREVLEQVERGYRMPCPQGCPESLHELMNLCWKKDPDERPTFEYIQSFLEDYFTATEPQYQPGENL
T7 sequence (P06241 whole entry, canonical isoform): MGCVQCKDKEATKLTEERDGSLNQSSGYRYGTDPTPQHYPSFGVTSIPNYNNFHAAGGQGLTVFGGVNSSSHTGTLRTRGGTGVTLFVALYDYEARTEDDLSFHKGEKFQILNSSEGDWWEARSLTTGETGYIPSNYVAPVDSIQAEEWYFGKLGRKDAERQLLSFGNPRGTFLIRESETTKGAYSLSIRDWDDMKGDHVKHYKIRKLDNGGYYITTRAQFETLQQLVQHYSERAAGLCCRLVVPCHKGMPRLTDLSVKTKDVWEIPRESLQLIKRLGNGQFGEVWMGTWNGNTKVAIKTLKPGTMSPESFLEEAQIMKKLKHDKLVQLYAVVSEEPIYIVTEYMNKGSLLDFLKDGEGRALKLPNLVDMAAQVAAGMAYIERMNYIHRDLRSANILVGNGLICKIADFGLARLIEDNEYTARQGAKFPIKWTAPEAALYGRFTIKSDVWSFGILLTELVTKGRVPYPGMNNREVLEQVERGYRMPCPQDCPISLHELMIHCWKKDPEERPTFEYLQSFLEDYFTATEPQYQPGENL
T11 sequence (P52564 whole entry): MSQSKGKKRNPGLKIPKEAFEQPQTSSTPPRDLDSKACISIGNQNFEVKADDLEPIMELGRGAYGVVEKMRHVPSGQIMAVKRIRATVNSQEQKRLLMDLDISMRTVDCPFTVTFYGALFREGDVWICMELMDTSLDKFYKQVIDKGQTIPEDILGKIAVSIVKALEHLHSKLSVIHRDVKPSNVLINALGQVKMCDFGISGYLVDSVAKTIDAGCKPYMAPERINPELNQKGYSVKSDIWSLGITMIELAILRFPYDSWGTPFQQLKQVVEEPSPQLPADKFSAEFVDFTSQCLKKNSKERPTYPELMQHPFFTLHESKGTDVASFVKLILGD
T6 sequence (P42685 whole entry): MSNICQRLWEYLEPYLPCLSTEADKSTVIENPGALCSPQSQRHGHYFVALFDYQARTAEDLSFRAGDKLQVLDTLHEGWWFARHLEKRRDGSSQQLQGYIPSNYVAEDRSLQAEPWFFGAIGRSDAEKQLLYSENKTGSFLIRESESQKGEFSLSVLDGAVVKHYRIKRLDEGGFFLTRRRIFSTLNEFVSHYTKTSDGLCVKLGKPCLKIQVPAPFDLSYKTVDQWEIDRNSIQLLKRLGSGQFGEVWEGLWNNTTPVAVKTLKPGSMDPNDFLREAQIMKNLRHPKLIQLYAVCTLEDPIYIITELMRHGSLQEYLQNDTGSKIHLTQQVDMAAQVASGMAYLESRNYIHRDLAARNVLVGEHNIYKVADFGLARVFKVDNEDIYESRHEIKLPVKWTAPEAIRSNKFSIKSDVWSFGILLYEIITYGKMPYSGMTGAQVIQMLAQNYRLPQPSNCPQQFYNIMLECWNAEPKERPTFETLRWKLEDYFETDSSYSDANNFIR
T12 sequence (O14733 whole entry): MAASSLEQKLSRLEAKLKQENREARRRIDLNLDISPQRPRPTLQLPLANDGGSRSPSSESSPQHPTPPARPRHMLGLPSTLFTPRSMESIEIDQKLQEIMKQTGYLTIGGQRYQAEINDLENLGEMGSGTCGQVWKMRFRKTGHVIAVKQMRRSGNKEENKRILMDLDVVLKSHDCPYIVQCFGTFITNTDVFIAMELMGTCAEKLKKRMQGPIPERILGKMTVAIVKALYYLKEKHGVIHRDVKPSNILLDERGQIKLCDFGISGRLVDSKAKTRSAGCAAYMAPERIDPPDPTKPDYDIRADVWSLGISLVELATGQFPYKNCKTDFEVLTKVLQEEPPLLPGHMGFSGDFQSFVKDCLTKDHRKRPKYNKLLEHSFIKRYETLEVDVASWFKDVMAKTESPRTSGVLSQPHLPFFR
T10 sequence (Q13163 whole entry): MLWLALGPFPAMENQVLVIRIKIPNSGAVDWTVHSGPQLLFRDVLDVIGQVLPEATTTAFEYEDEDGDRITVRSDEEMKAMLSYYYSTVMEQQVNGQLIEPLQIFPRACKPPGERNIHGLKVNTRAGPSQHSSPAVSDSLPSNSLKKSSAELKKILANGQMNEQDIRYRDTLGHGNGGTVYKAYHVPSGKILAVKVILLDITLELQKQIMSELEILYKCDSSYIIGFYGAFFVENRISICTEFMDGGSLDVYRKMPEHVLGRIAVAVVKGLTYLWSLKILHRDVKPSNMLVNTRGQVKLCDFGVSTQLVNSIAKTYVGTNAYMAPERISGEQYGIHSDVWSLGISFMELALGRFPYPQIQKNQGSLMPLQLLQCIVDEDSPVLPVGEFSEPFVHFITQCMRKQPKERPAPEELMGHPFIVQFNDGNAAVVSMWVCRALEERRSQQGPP

SMILES: O=C(c1c(F)ccc(NS(=O)(=O)CCCO)c1F)c1c[nH]c2ncc(-c3ccc(Cl)cc3)cc12 [200-17, N-[3-[5-(4-chlorophenyl)-1H-pyrrolo[2,3-b]pyridine-3-carbonyl]-2,4-difluorophenyl]-3-hydroxypropane-1-sulfonamide]
- inhibition at 0.01 µM (BLK; [1]): < 30%
- inhibition at 0.1 µM (BLK; inhibitor concentration 0.1 μM): > 50%
- inhibition at 1 µM (BLK; inhibitor concentration 1 μM): > 50%
- inhibition at 1 µM (EPHA5): < 50%
- inhibition at 1 µM (FGFR1): > 50%
- inhibition at 1 µM (FLT1): > 50%
- inhibition at 1 µM (FLT4): > 50%
- inhibition at 1 µM (FRK): > 50%
- inhibition at 0.01 µM (FYN(isoform a); [1]): < 30%
- inhibition at 0.1 µM (FYN(isoform a); inhibitor concentration 0.1 μM): < 50%
- inhibition at 1 µM (FYN(isoform a); inhibitor concentration 1 μM): > 50%
- inhibition at 0.01 µM (FYN(isoform b); [1]): < 30%
- inhibition at 0.1 µM (FYN(isoform b); inhibitor concentration 0.1 μM): < 50%
- inhibition at 1 µM (FYN(isoform b); inhibitor concentration 1 μM): > 50%
- inhibition at 1 µM (KIT(D816E)): > 50%
- inhibition at 1 µM (MAP2K5): > 50%
- inhibition at 1 µM (MAP2K6): < 50%
- inhibition at 1 µM (MAP2K7): < 50%
- inhibition at 1 µM (MST3): < 50%
- inhibition at 1 µM (MST4): < 50%
- inhibition at 1 µM (PKD1): < 50%
- inhibition at 0.01 µM (RET(Y791F); [1]): < 30%
- inhibition at 0.1 µM (RET(Y791F); inhibitor concentration 0.1 μM): < 50%
- inhibition at 1 µM (RET(Y791F); inhibitor concentration 1 μM): > 50%
- inhibition at 1 µM (ROCK1): < 50%
- inhibition at 1 µM (ROCK2): < 50%
- inhibition at 0.01 µM (YES; [1]): < 30%
- inhibition at 0.1 µM (YES; inhibitor concentration 0.1 μM): > 50%
- inhibition at 1 µM (YES; inhibitor concentration 1 μM): > 50%
- inhibition at 1 µM (YES(T348I)): > 50%
- inhibition at 1 µM (p38β): > 50%
- inhibition at 1 µM (skMLCK): > 50%
